Data as given in patent publication US20240270762A1, “PENICILLIN-BINDING PROTEIN INHIBITORS” (priority 2021, published 2024).
≈ marks a conversion by molar mass, not a printed value.

How the values were obtained:
[1] = target: T1, PBP2 from Neisseria gonorrhoeae (FA19) (Neisseria gonorrhoeae, UniProt P08149); assay: Bocillin-FL fluorescence polarization competition binding, N. gonorrhoeae PBP2; details: fluorescence polarization competition binding assay using Bocillin-FL, read-out: N. gonorrhoeae PBP2 Potency
T1 construct: made in house
T1 sequence (P08149 whole entry): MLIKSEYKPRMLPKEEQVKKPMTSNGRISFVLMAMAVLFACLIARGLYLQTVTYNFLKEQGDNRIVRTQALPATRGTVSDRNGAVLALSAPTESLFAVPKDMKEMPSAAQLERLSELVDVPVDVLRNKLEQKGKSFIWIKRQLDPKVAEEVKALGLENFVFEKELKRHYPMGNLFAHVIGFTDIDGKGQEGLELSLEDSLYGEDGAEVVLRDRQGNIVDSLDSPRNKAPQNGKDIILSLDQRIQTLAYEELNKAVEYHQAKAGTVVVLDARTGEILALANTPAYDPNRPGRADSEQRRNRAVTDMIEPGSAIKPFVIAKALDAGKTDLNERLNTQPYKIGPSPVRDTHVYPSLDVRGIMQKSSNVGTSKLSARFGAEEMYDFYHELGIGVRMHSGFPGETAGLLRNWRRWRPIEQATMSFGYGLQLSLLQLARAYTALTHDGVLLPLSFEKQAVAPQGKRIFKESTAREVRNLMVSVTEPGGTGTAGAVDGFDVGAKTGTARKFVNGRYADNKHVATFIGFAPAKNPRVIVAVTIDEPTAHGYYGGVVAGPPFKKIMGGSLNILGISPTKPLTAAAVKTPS
Summary of the method: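 Fluorescence polarization competition with 0.1 μM Bocillin-FL (fluorescent penicillin V) against 0.25 μM N. gonorrhoeae FA19 PBP2 in 50 mM Hepes pH 8.0, 300 mM NaCl, 10% glycerol. Boronic acid inhibitors were preincubated with PBP, then Bocillin-FL was added and FP read (490/520 nm) up to 60 min. EC50 is the concentration halving PBP-bound Bocillin-FL.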

E. coli 901C = assay: microbe, parasite or virus in culture; format: cell-based; details: Escherichia coli, read-out: MIC E. coli 901C

| SMILES | EC50 [1] | MIC (E. coli 901C) |
| --- | --- | --- |
| O=C(O)c1cccc2c1OB(O)[C@@H](NC(=O)[C@@H](NC(=O)N1CCNC1=O)c1ccc(P(=O)(O)O)cc1)C2 [Example 39, (R)-2-hydroxy-3-((S)-2-(2-oxoimidazolidine-1-carboxamido)-2-(4-phosphonophenyl)acetamido)-3,4-dihydro-2H-benzo[e][1,2]oxaborinine-8-carboxylic acid] | 10 to 50 µM | 2 to 4 µg/mL (≈ 3.76 to 7.52 µM) |
| O=C(NC(C(=O)N[C@H]1Cc2cccc(C(=O)O)c2OB1O)c1ccc(P(=O)(O)O)cc1)c1ccccn1 (stereo partly drawn) [Example 32, (3R)-2-hydroxy-3-(2-(4-phosphonophenyl)-2-(picolinamido)acetamido)-3,4-dihydro-2H-benzo[e][1,2]oxaborinine-8-carboxylic acid] | < 10 µM | 2 to 4 µg/mL (≈ 3.81 to 7.62 µM) |
